# According to PubChem BioAssay AID1963860 (Molecular Pharmacology Branch, DTP, NCI, 2024):
# Tested on: CN0375-F725-PDC KRAS spheroid viability
# Test: Anticancer human tumor CN0375-F725-PDC patient-derived colon carcinoma cell line growth inhibition [KRAS2]
# Conditions: spheroids with HUVEC and MSC; for IC50: curve of first compound; for viability, T/C: stronger effect = lower value
# Summary of the method: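 KRAS-mutant tumor cells were grown as spheroids with HUVEC endothelial cells and human MSCs as stroma. Targeted agents were tested alone and with KRAS pathway inhibitors. Doses started at or near clinical Cmax, or 10 microM, descending half-log.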
# [1] = second compound 0.0316 µM, first compound 0.0316 µM
# [2] = second compound 0.0316 µM, first compound 0.1 µM
# [3] = second compound 0.1 µM, first compound 0.0316 µM
# [4] = second compound 0.1 µM, first compound 0.1 µM
# [5] = second compound 0.316 µM, first compound 0.0316 µM
# [6] = second compound 0.316 µM, first compound 0.1 µM
# [7] = second compound 1 µM, first compound 0.0316 µM
# [8] = second compound 1 µM, first compound 0.1 µM
# [9] = second compound 3.16 µM, first compound 0.0316 µM
# [10] = second compound 3.16 µM, first compound 0.1 µM
# 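Further: spheroids exposed to agents for 7 days.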
smiles,measurement,setting,value
Cn1nccc1Nc1nccc(-c2cc3c(s2)C(C)(C)N(CCN2CCOCC2)C3=O)n1 + C=CC(=O)N1CCN(c2nc(OCC3CCCN3C)nc3c2CCN(c2cccc4cccc(C)c24)C3)CC1CC#N,IC50,second compound 0.0316 µM,3.93 µM
same,IC50,second compound 0.1 µM,2.98 µM
same,IC50,second compound 0.316 µM,2.23 µM
same,IC50,second compound 1 µM,0.739 µM
same,IC50,second compound 3.16 µM,< 0.0316 µM
same,"viability, T/C",[1],100%
same,"viability, T/C",[2],97.3%
same,"viability, T/C","second compound 0.0316 µM, first compound 0.316 µM",76.9%
same,"viability, T/C","second compound 0.0316 µM, first compound 1 µM",68.9%
same,"viability, T/C","second compound 0.0316 µM, first compound 3.16 µM",52.7%
same,"viability, T/C","second compound 0.0316 µM, first compound 10 µM",39%
same,"viability, T/C",[3],95.7%
same,"viability, T/C",[4],93.4%
same,"viability, T/C","second compound 0.1 µM, first compound 0.316 µM",77.2%
same,"viability, T/C","second compound 0.1 µM, first compound 1 µM",63.4%
same,"viability, T/C","second compound 0.1 µM, first compound 3.16 µM",50.4%
same,"viability, T/C","second compound 0.1 µM, first compound 10 µM",39.7%
same,"viability, T/C",[5],91.5%
same,"viability, T/C",[6],91.3%
same,"viability, T/C","second compound 0.316 µM, first compound 0.316 µM",70.3%
same,"viability, T/C","second compound 0.316 µM, first compound 1 µM",60.3%
same,"viability, T/C","second compound 0.316 µM, first compound 3.16 µM",46.9%
same,"viability, T/C","second compound 0.316 µM, first compound 10 µM",38%
same,"viability, T/C",[7],87.6%
same,"viability, T/C",[8],82.8%
same,"viability, T/C","second compound 1 µM, first compound 0.316 µM",52.4%
same,"viability, T/C","second compound 1 µM, first compound 1 µM",47%
same,"viability, T/C","second compound 1 µM, first compound 3.16 µM",39.1%
same,"viability, T/C","second compound 1 µM, first compound 10 µM",23.1%
same,"viability, T/C",[9],27.7%
same,"viability, T/C",[10],24.3%
same,"viability, T/C","second compound 3.16 µM, first compound 0.316 µM",11.9%
same,"viability, T/C","second compound 3.16 µM, first compound 1 µM",7.82%
same,"viability, T/C","second compound 3.16 µM, first compound 3.16 µM",5.81%
same,"viability, T/C","second compound 3.16 µM, first compound 10 µM",2.15%
CC(C)n1nc(-c2ccc3oc(N)nc3c2)c2c(N)ncnc21 + C=CC(=O)N1CCN(c2nc(OCC3CCCN3C)nc3c2CCN(c2cccc4cccc(C)c24)C3)CC1CC#N,IC50,second compound 0.0316 µM,0.0542 µM
same,IC50,second compound 0.1 µM,0.0392 µM
same,IC50,second compound 0.316 µM,0.0566 µM
same,IC50,second compound 1 µM,0.0427 µM
same,IC50,second compound 3.16 µM,< 0.000316 µM
same,"viability, T/C","second compound 0.0316 µM, first compound 0.000316 µM",106%
same,"viability, T/C","second compound 0.0316 µM, first compound 0.001 µM",96.5%
same,"viability, T/C","second compound 0.0316 µM, first compound 0.00316 µM",76.8%
same,"viability, T/C","second compound 0.0316 µM, first compound 0.01 µM",70.1%
same,"viability, T/C",[1],57.5%
same,"viability, T/C",[2],42.4%
same,"viability, T/C","second compound 0.1 µM, first compound 0.000316 µM",103%
same,"viability, T/C","second compound 0.1 µM, first compound 0.001 µM",95.2%
same,"viability, T/C","second compound 0.1 µM, first compound 0.00316 µM",78.8%
same,"viability, T/C","second compound 0.1 µM, first compound 0.01 µM",63.8%
same,"viability, T/C",[3],51.9%
same,"viability, T/C",[4],43.9%
same,"viability, T/C","second compound 0.316 µM, first compound 0.000316 µM",103%
same,"viability, T/C","second compound 0.316 µM, first compound 0.001 µM",98%
same,"viability, T/C","second compound 0.316 µM, first compound 0.00316 µM",78.3%
same,"viability, T/C","second compound 0.316 µM, first compound 0.01 µM",63.7%
same,"viability, T/C",[5],56.6%
same,"viability, T/C",[6],45%
same,"viability, T/C","second compound 1 µM, first compound 0.000316 µM",87.4%
same,"viability, T/C","second compound 1 µM, first compound 0.001 µM",91.2%
same,"viability, T/C","second compound 1 µM, first compound 0.00316 µM",75.1%
same,"viability, T/C","second compound 1 µM, first compound 0.01 µM",60%
same,"viability, T/C",[7],53.2%
same,"viability, T/C",[8],46.1%
same,"viability, T/C","second compound 3.16 µM, first compound 0.000316 µM",37.8%
same,"viability, T/C","second compound 3.16 µM, first compound 0.001 µM",11.5%
same,"viability, T/C","second compound 3.16 µM, first compound 0.00316 µM",31.4%
same,"viability, T/C","second compound 3.16 µM, first compound 0.01 µM",1.09%
same,"viability, T/C",[9],11.5%
same,"viability, T/C",[10],8.34%
